Measured values: ChEMBL document CHEMBL4334502, “Basimarols A, B, and C, Highly Oxygenated Pimarane Diterpenoids from Basilicum polystachyon” (J Nat Prod, 2019)
Activity calls are given as the source filed them. No cut-off for these calls is given here.

Legend:
[1] = test system: Dengue virus; test: Antiviral activity against DENV infected in African green monkey Vero cells assessed as reduction in plague formation incubated for 72 hrs by immunofluorescence assay; type: functional, organism-based
[2] = test system: SK-MEL-28; test: Cytotoxicity against human SK-MEL-28 cells assessed as reduction in cell viability incubated for 6 days by SRB assay; type: functional, cell-based; settings: SK-MEL-28, 144 h
[3] = test system: NFF; test: Cytotoxicity against human NFF cells assessed as reduction in cell viability incubated for 6 days by SRB assay; type: cell-based; settings: 144 h
[4] = test system: MCF7; test: Cytotoxicity against human MCF7 cells assessed as reduction in cell viability incubated for 6 days by SRB assay; type: functional, cell-based; settings: MCF7, 144 h
[5] = test system: Influenza A virus; test: Antiviral activity against influenza virus H1N1 infected in MDCK cells assessed as reduction in plague formation incubated for 72 hrs by immunofluorescence assay; type: functional, organism-based
[6] = test system: Kunjin virus; test: Antiviral activity against West Nile virus Kunjin infected in African green monkey Vero cells assessed as reduction in plague formation incubated for 72 hrs by immunofluorescence assay; type: functional
[7] = test system: Influenza A virus H3N2; test: Antiviral activity against influenza virus H3N2 infected in MDCK cells assessed as reduction in plague formation incubated for 72 hrs by immunofluorescence assay; type: functional, organism-based

SMILES | Activity [1] | IC50 [2] [µM] | IC50 [3] [µM] | IC50 [4] [µM] | IC50 [5] [µM] | IC50 [6] [µM] | IC50 [1] [µM] | IC50 [7] [µM] | Activity [5] | Activity [7]
C=C[C@]1(C)C[C@@]23O[C@@H](OC(C)=O)C4([C@H]2C[C@@H]1O)[C@@H](O)CCC(C)(C)[C@@H]4C(=O)[C@H]3OC(C)=O | Active | 158 | 95 | 86 |  |  |  |  |  | 
C=C[C@]1(C)C[C@@]2(O)[C@H](CC1=O)C13CO[C@@](O)([C@H]1[C@@](C)(COC(=O)c1ccccc1)CC[C@H]3O)[C@H]2OC(C)=O | Active | 70 | 53 | 57 |  |  |  |  |  | 
C=C[C@]1(C)C[C@]2(O)[C@H](OC(C)=O)C(=O)[C@H]3C(C)(C)CC[C@H](O)[C@]3(COC(C)=O)[C@H]2C[C@@H]1OC(C)=O | Active | > 200 | > 200 | 179 |  |  |  |  |  | 
C=C/C(C)=C/C[C@H]1C(C)=CC[C@@H]2[C@]1(C)CCC[C@@]2(C)C(=O)O |  |  |  |  | 4.1 | 1.2 | 1.4 | 18 |  | 
C=C1CC[C@@H]2[C@](C)(CO)[C@H](O)CC[C@@]2(C)[C@@H]1C/C=C1/C(=O)OC[C@H]1O [ANDROGRAPHOLIDE] | Active |  |  |  |  | 100 |  |  | inactive | inactive
